Results: ChEMBL document CHEMBL3885861, “Open TG-GATES”

Species: Rattus norvegicus
Experiment: Open TG-GATES - Regimen: Single
Type: toxicity, organism-based, Sprague-Dawley
Design: regimen Single, gender Male, age 6 weeks
Conditions: in vivo, po, 20 mg/kg, route gavage, dose level Middle; for APTT / Bas / Eos / Fbg / Hb / Ht / Lym / MCH / MCHC / MCV / Mono / Neu / PT / Plat / RBC / Ret / WBC: tissue Blood; for KIDNEY_L / KIDNEY_R / KIDNEY_TOTAL: tissue Kidney; for LIVER: tissue Liver; for A/G / ALP / ALT / AST / BUN / CRE / Ca / Cl / DBIL / GLC / IP / K / LDH / Na / PL / RALB / TBIL / TC / TG / TP / gamma-GTP: tissue Plasma

With `CC(C)NNC(=O)c1ccncc1` [IPRONIAZID] the TERMINAL_BW (3 h) was 203.6 g, the APTT (3 h) was 21.7 s and the Bas (3 h) was 0%. It also gave an Eos (3 h) of 1%, a Fbg (3 h) of 321.4 mg/dL and a Hb (3 h) of 12.8 g/dL. The Ht (3 h) was 37.7%, the Lym (3 h) was 78.8% and the MCH (3 h) was 21.6 pg. It also gave an MCHC (3 h) of 34.1%, an MCV (3 h) of 63.4 fL and a Mono (3 h) of 2%. The Neu (3 h) was 17.8%, the PT (3 h) was 16.3 s and the Plat (3 h) was 114.7 x10_4/uL. It also gave an RBC (3 h) of 594.6 x10_4/ul, a Ret (3 h) of 8.2% and a WBC (3 h) of 62.7 x10_2/uL. It also gave a KIDNEY_L (3 h) of 1 g, a KIDNEY_R (3 h) of 1 g and a KIDNEY_TOTAL (3 h) of 1.9 g. For the same compound, the LIVER (3 h) was 9.6 g, the A/G (3 h) was 1.3 and the ALP (3 h) was 1741.8 IU/L. It also gave an ALT (3 h) of 35.4 IU/L, an AST (3 h) of 73.2 IU/L and a BUN (3 h) of 12.4 mg/dL. For the same compound, the CRE (3 h) was 0.2 mg/dL, the Ca (3 h) was 10.7 mg/dL and the Cl (3 h) was 107.2 meq/L. For the same compound, the DBIL (3 h) was 0.006 mg/dL, the GLC (3 h) was 182.8 mg/dL and the IP (3 h) was 8.8 mg/dL. For the same compound, the K (3 h) was 4 meq/L, the LDH (3 h) was 229.4 IU/L and the Na (3 h) was 142 meq/L. The PL (3 h) was 143.6 mg/dL, the RALB (3 h) was 3.2 g/dL and the TBIL (3 h) was 0.01 mg/dL. It also gave a TC (3 h) of 78.8 mg/dL, a TG (3 h) of 58.8 mg/dL and a TP (3 h) of 5.7 g/dL. It also gave a gamma-GTP (3 h) of 1.2 IU/L, a TERMINAL_BW (6 h) of 213.3 g and an APTT (6 h) of 23.3 s. It also gave a Bas (6 h) of 0%, an Eos (6 h) of 0.6% and a Fbg (6 h) of 324.6 mg/dL. For the same compound, the Hb (6 h) was 13.2 g/dL, the Ht (6 h) was 38.9% and the Lym (6 h) was 72.6%. For the same compound, the MCH (6 h) was 21.5 pg, the MCHC (6 h) was 34.1% and the MCV (6 h) was 63.1 fL. For the same compound, the Mono (6 h) was 2.6%, the Neu (6 h) was 23.6% and the PT (6 h) was 15.6 s. It also gave a Plat (6 h) of 118.4 x10_4/uL, an RBC (6 h) of 615.8 x10_4/ul and a Ret (6 h) of 8%. It also gave a WBC (6 h) of 79 x10_2/uL, a KIDNEY_L (6 h) of 1 g and a KIDNEY_R (6 h) of 1 g. It also gave a KIDNEY_TOTAL (6 h) of 1.9 g, an LIVER (6 h) of 9.4 g and an A/G (6 h) of 1.2. It also gave an ALP (6 h) of 1382.2 IU/L, an ALT (6 h) of 34.4 IU/L and an AST (6 h) of 72.8 IU/L. It also gave a BUN (6 h) of 10.4 mg/dL, a CRE (6 h) of 0.1 mg/dL and a Ca (6 h) of 10.6 mg/dL. It also gave a Cl (6 h) of 107 meq/L, a DBIL (6 h) of 0.002 mg/dL and a GLC (6 h) of 178.8 mg/dL. It also gave an IP (6 h) of 10.3 mg/dL, a K (6 h) of 4.3 meq/L and an LDH (6 h) of 212.6 IU/L. For the same compound, the Na (6 h) was 142 meq/L, the PL (6 h) was 154.6 mg/dL and the RALB (6 h) was 2.9 g/dL. It also gave a TBIL (6 h) of 0.008 mg/dL, a TC (6 h) of 86.4 mg/dL and a TG (6 h) of 68.2 mg/dL. The TP (6 h) was 5.4 g/dL, the gamma-GTP (6 h) was 1.2 IU/L and the TERMINAL_BW (9 h) was 207.6 g. It also gave an APTT (9 h) of 22.8 s, a Bas (9 h) of 0% and an Eos (9 h) of 1%. It also gave a Fbg (9 h) of 306.4 mg/dL, a Hb (9 h) of 13.1 g/dL and a Ht (9 h) of 37.8%. It also gave a Lym (9 h) of 76.4%, an MCH (9 h) of 21.4 pg and an MCHC (9 h) of 34.6%. For the same compound, the MCV (9 h) was 61.8 fL, the Mono (9 h) was 2.6% and the Neu (9 h) was 19.4%. For the same compound, the PT (9 h) was 15.5 s, the Plat (9 h) was 116.3 x10_4/uL and the RBC (9 h) was 612.4 x10_4/ul. It also gave a Ret (9 h) of 7.7%, a WBC (9 h) of 87.5 x10_2/uL and a KIDNEY_L (9 h) of 1 g. It also gave a KIDNEY_R (9 h) of 1 g, a KIDNEY_TOTAL (9 h) of 2 g and an LIVER (9 h) of 8.6 g. The A/G (9 h) was 1.3, the ALP (9 h) was 1268.2 IU/L and the ALT (9 h) was 35 IU/L. It also gave an AST (9 h) of 70.2 IU/L, a BUN (9 h) of 8.4 mg/dL and a CRE (9 h) of 0.2 mg/dL. The Ca (9 h) was 10.6 mg/dL, the Cl (9 h) was 106.6 meq/L and the DBIL (9 h) was 0.01 mg/dL. The GLC (9 h) was 176.2 mg/dL, the IP (9 h) was 10.2 mg/dL and the K (9 h) was 4.2 meq/L. For the same compound, the LDH (9 h) was 171 IU/L, the Na (9 h) was 141.4 meq/L and the PL (9 h) was 130.4 mg/dL. It also gave an RALB (9 h) of 3 g/dL, a TBIL (9 h) of 0.02 mg/dL and a TC (9 h) of 79.2 mg/dL. It also gave a TG (9 h) of 35.8 mg/dL, a TP (9 h) of 5.4 g/dL and a gamma-GTP (9 h) of 1 IU/L. For the same compound, the TERMINAL_BW (24 h) was 213.8 g, the APTT (24 h) was 21.6 s and the Bas (24 h) was 0%. For the same compound, the Eos (24 h) was 0.6%, the Fbg (24 h) was 318.8 mg/dL and the Hb (24 h) was 12.9 g/dL. For the same compound, the Ht (24 h) was 37.7%, the Lym (24 h) was 76.8% and the MCH (24 h) was 20.9 pg. For the same compound, the MCHC (24 h) was 34.2%, the MCV (24 h) was 60.9 fL and the Mono (24 h) was 2%. The Neu (24 h) was 19.6%, the PT (24 h) was 15.9 s and the Plat (24 h) was 125.4 x10_4/uL. The RBC (24 h) was 618.2 x10_4/ul, the Ret (24 h) was 7.7% and the WBC (24 h) was 81.3 x10_2/uL. It also gave a KIDNEY_L (24 h) of 1 g, a KIDNEY_R (24 h) of 1 g and a KIDNEY_TOTAL (24 h) of 1.9 g. For the same compound, the LIVER (24 h) was 10.1 g, the A/G (24 h) was 1.2 and the ALP (24 h) was 1498.8 IU/L. It also gave an ALT (24 h) of 38.2 IU/L, an AST (24 h) of 73 IU/L and a BUN (24 h) of 17.8 mg/dL. The CRE (24 h) was 0.2 mg/dL, the Ca (24 h) was 10.9 mg/dL and the Cl (24 h) was 105.4 meq/L. For the same compound, the DBIL (24 h) was 0.006 mg/dL, the GLC (24 h) was 177.6 mg/dL and the IP (24 h) was 8 mg/dL. For the same compound, the K (24 h) was 4.5 meq/L, the LDH (24 h) was 275.4 IU/L and the Na (24 h) was 141.6 meq/L. It also gave a PL (24 h) of 134.8 mg/dL, an RALB (24 h) of 3 g/dL and a TBIL (24 h) of 0.006 mg/dL. The TC (24 h) was 73 mg/dL, the TG (24 h) was 85.6 mg/dL and the TP (24 h) was 5.5 g/dL. The gamma-GTP (24 h) was 1.6 IU/L.
